Key:
progerin [1] = experiment: progerin mRNA expression by quantitative PCR in AG01972 cells; assay type: cell-based, human; details: 48 h
Method: (§1) The AG01972 primary HGPS cell line was obtained from Coriell Cell Repositories (New Jersey, USA). Human dermal fibroblasts (HDF) were isolated from juvenile foreskins and termed 2DD was also used. AG01972 cells were cultured in T75 tissue culture treated flasks (Fisher, UK) containing Dulbecco's […]+Glutamax (Invitrogen, UK), supplemented with 15% fetal calf serum and 1% penicillin/streptomycin (Invitrogen) in an humidified, 37° C., 5% CO2/95% air incubator. The cells were passaged twice weekly. Cells were plated at a density of 2×10^5 into 9 cm dishes containing 13 mm diameter glass coverslips. Six hours after seeding, the AG01972 cells were treated with 0.1% dimethyl sulfoxide, different concentrations of DHB. DHB treatment was repeated 24 h after the initial treatment. The cells were analyzed after 48 h of treatment.
(§2) Total RNA was isolated using a RNeasy Micro extraction kit according to the manufacturer's protocol. An on-column DNase I digestion was performed to avoid genomic DNA amplification. […] The quantitative PCR analysis was performed following the manufacturers' instructions.
(§3) Quantification of gene expression was based on the DeltaCt Method and normalized on 18S expression. […]
(§4) The protein levels of A-type lamins and mRNA expressions of lamin A and progerin were measured 48 h after DHB treatment on AG01972 cells. […]

lamin A [2] = experiment: lamin A mRNA expression by quantitative PCR in AG01972 cells; assay type: cell-based, human; details: 48 h
Method: as §1, §2, §3, §4

lamin A [3] = experiment: lamin A mRNA expression by quantitative PCR in 2DD cells; assay type: cell-based, human; details: 5 μmol/L DHB
Method: as §1, §2, §3, §4

progerin [4] = experiment: progerin protein level by western blot in AG01972 cells; assay type: cell-based, human; details: 5 μmol/L DHB
Method: (§5) Whole-cell lysates of AG01972 cells and 2DD cells were collected, separated by SDS polyacrylamide gel electrophoresis, and transferred onto polyvinylidene fluoride membrane using the liquid transfer method. The blots were blocked in 10% skim milk in Tween 0.1% tris-buffered saline 1×1 h at room temperature. The membranes were incubated during the night at 4° C. Antigen-antibody binding was detected using horseradish peroxidase-conjugated species-specific secondary antibodies, followed by enhanced chemiluminescence western blotting detection reagents. The western blot results were quantified using ImageJ software. FIG. 2a is a graph of protein levels of lamin A and progerin in AG01972 cells of DHB supplemented group and non-supplemented group. FIG. 2b is a graph of protein levels of lamin A and progerin in 2DD cells of DHB supplemented group and non-supplemented group.

lamin A [5] = experiment: lamin A protein level by western blot in AG01972 cells; assay type: cell-based, human; details: 5 μmol/L DHB
Method: as §5

lamin A [6] = experiment: lamin A protein level by western blot in 2DD cells; assay type: cell-based, human; details: 5 μmol/L DHB
Method: as §5

2BS cells [7] = experiment: cell proliferation (CCK-8) of PD45 2BS cells; assay type: cell-based, human
Method: (§6) Human diploid fibroblast 2BS and WI38 cells were isolated from fetal lung fibroblast tissue. These cell lines were purchased from commercially available sources. Cells were grown in Dulbecco's Modification Eagle's Minimum Essential Medium (DMEM, Life Technologies Inc.) supplemented with 10% fetal bovine serum (FBS; Gibco), 2 mm glutamine, 100 U/ml penicillin, and 100 μg/ml streptomycin, in a humidified atmosphere with 5% CO2 at 37° C. These cells were considered as young at PD30 or below and fully senescent at PD50 or above Cell proliferation was assayed using the CCK-8 method. […] The absorbance values of each well were measured at day 0 (4 h after plating) and on days 1, 2, 3, 4, 5, and 6. […] At the indicated points, cells were harvested with 10% CCK-8 for one hour, and the absorbance was measured at 490 nm. Each data point was measured five times, and each curve was repeated more than three times. […] FIG. 3a is a graph of effect of DHB at different concentrations on the proliferation of PD45 2BS cells and WI38 cells measured by […]. […] FIG. 3d is a graph of quantification of SA-β-gal-positive cell rate of 2BS cells. Quantification analysis of SA-β-gal in FIG. 3d is shown that DHB (about 9%) could delay or reverse the population senescence of 2BS cells remarkably, as compared to the PD 45-DMEM group (about 55%) and PD 45 group (about 60%).

WI38 cells = experiment: cell proliferation (CCK-8) of PD45 WI38 cells; assay type: cell-based, human
Method: as §6

2BS cells [8] = experiment: senescence-associated β-galactosidase (SA-β-gal) assay in 2BS cells; assay type: cell-based, human; details: 2BS cells PD45, 0.300 μg/ml DHB; PD 45-DMEM group about 55%, PD 45 group about 60%
Method: Human diploid fibroblast 2BS and WI38 cells were isolated from fetal lung fibroblast tissue. These cell lines were purchased from commercially available sources. Cells were grown in Dulbecco's Modification Eagle's Minimum Essential Medium (DMEM, Life Technologies Inc.) supplemented with 10% fetal bovine serum (FBS; Gibco), 2 mm glutamine, 100 U/ml penicillin, and 100 μg/ml streptomycin, in a humidified atmosphere with 5% CO2 at 37° C. These cells were considered as young at PD30 or below and fully senescent at PD50 or above Senescence-associated β-galactosidase (SA-β-gal) assay: 2B S cells (PD45) grown in DMEM with/without 0.300 μg/ml DHB concentration were stained according to the method of Dimri with minor modifications (Dimri, Lee et al. 1995). […] The average value of the percentage of SA-β-gal-positive cells for each set of samples was calculated based on three independent experiments. […] FIG. 3a is a graph of effect of DHB at different concentrations on the proliferation of PD45 2BS cells and WI38 cells measured by MTT-assay. […] FIG. 3d is a graph of quantification of SA-β-gal-positive cell rate of 2BS cells. Quantification analysis of SA-β-gal in FIG. 3d is shown that DHB (about 9%) could delay or reverse the population senescence of 2BS cells remarkably, as compared to the PD 45-DMEM group (about 55%) and PD 45 group (about 60%).

[9] = compared with berberine (BBR), Feng et al. 2015; cited from earlier work
[10] = different concentrations of DHB, normalized on 18S

Which results are given for COc1ccc2c(c1OC)CN1CCc3cc4c(cc3C1=C2)OCO4 [DHB, Dihydroberberine]?
concentration of maximum effect on progerin mRNA expression (progerin [1]): 5 µmol/L; progerin mRNA expression compared with untreated cells (progerin [1]; [10]): dose-dependent decrease; concentration of maximum effect on lamin A mRNA expression (lamin A [2]): 5 µmol/L; lamin A mRNA expression compared with untreated cells (lamin A [2]; [10]): dose-dependent decrease; lamin A mRNA expression (lamin A [3]): decrease in lamin A mRNA expression; progerin protein content (western blot) compared with untreated cells (progerin [4]): significant decrease in progerin content; lamin A protein level (western blot) compared with untreated cells (lamin A [5]): decrease in lamin A; lamin A protein level (western blot) compared with untreated cells (lamin A [6]): decrease in lamin A; effect on proliferation, time course (2BS cells [7]; 2BS (PD45) cells, 0.3 μg/ml, seven days of incubation): promoted proliferation; optimum concentration for proliferation (2BS cells [7]; PD45 2BS cells, FIG. 3a): 0.3 µg/mL; optimum concentration for proliferation (WI38 cells; PD45 WI38 cells, FIG. 3a): 0.3 µg/mL; effect on proliferation, time course (WI38 cells; WI38 (PD45) cells, 0.3 μg/ml, seven days of incubation): promoted proliferation; SA-β-gal-positive cell rate (2BS cells [8]): about 9%; absorption [9]: improved absorption; oral bioavailability [9]: enhanced oral bioavailability
